Source: EP1200406B1, “CYCLIC AMIDES AND IMIDES HAVING SELECTIVE ANTAGONIST ACTIVITY AT ALPHA-1D ADRENERGIC RECEPTOR” (RECORDATI INDUSTRIA CHIMICA E FARMACEUTICA S.p.a., priority 1999, dated 2001)

What was measured:
Guinea pig spleen α1B = target: T1, Guinea pig spleen α1B (Cavia porcellus, UniProt H0WBQ9); conditions: footnote a: Eltze M., Eur. J. Pharmacol. 260, 211-220 (1994); cited from earlier work
T1 construct: from tissue; host or cells: guinea pig spleen, longitudinal strips
T1 sequence (H0WBQ9 1-520): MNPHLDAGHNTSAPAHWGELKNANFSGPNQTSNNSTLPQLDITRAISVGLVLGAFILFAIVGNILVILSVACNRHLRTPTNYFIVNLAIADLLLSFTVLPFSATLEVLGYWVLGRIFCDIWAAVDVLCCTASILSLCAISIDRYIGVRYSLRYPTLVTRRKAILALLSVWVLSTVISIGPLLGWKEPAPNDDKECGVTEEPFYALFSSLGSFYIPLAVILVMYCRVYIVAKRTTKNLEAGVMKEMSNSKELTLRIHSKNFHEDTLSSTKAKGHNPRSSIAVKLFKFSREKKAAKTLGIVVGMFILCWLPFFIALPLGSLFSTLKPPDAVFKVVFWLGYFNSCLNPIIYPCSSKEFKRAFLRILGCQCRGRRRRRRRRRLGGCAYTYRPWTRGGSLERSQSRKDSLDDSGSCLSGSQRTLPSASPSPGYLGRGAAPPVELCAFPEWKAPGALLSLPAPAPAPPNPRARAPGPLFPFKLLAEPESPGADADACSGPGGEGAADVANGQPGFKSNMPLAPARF

[1] = target: T2, human recombinant α1b adrenoceptor (Homo sapiens, UniProt P35368); assay: Radioligand binding ([3H]prazosin) on membranes of CHO cells expressing cloned α1b adrenoceptor; conditions: human cloned receptor, CHO cell membranes, 0.2 nM [3H]prazosin; read-out: Affinity (Ki) α1b
T2 construct: expressed in transfected cells; host or cells: CHO cells (membranes)
T2 sequence (P35368 1-520): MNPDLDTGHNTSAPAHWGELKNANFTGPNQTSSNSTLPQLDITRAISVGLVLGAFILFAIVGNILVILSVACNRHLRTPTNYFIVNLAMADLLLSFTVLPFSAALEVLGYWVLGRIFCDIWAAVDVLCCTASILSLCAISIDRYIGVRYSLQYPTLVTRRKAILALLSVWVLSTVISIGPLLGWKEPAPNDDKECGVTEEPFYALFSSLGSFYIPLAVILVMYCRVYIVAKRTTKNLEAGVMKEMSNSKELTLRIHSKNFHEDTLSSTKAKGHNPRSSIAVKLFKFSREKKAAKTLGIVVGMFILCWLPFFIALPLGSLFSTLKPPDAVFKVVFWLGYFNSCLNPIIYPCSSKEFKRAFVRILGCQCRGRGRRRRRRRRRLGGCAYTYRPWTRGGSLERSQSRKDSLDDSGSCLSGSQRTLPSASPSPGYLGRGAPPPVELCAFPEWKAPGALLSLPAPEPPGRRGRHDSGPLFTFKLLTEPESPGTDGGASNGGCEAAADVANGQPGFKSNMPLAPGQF
Method: (§1) The determination of affinity for cloned subtypes of human α1 adrenergic receptors was performed in membranes from CHO cells (chinese hamster ovary cells) transfected by electroporation with DNA expressing the genes encoding each α1-adrenoceptor subtype, namely α1a, α1b and α1d.. Cloning and stable expression of the human α1-adrenoceptor gene were performed as previously described (Testa et al., Pharmacol. Comm. 6, 79-86 (1995)). CHO cell membranes were incubated in […] Tris pH 7.4 with 0.2 nM [^3H]prazosin, in a final volume of 1.02 ml for 30 minutes at 25°C, in the absence or presence of competing drugs (1 pM-10 µM). Non-specific binding was determined in the presence of 10 µM phentolamine. Incubation was stopped by addition of ice-cold Tris buffer and rapid filtration through 0.2% polyethyleneimine pretreated Schleicher & Schuell GF52 filters. Genomic clone G-21 coding for the human 5-HT1A-serotoninergic receptor was stably transfected in a human cell line (HeLa) (Fargin et al., J. Biol. Chem. 284, 14848-14852 (1989)). The HeLa cells were grown as monolayers in Dulbecco's modified Eagle's medium (DMEM), supplemented with 10% foetal calf serum and gentamicin (100 µg/ml), 5% CO2, at 37°C. The cells were detached from the growth flask at 95% confluence by a cell scraper and were lysed in ice-cold 5 mM Tris and 5-mM EDTA buffer (pH 7.4). The homogenates were centrifuged at 40000 x g x 20 minutes and the membranes were re-suspended in a small volume of ice-cold 5 mM Tris and 5-mM EDTA buffer (pH 7.4) and immediately frozen and stored at -70°C until use. On the experiment day, the cell membranes were re-suspended in a buffer containing 50 mM Tris (pH 7.4), 2.5 mM MgCl2, 10 µM pargyline (Fargin et al., Nature 335, 358-360 (1988)). […] The incubation was stopped by addition of ice-cold Tris buffer and rapid filtration through 0.2%-polyethyleneimine-pretreated Schleicher & Schuell filters. The inhibition of specific binding of the radioligands by the drugs was analysed to estimate the IC50 value by using the non-linear curve-fitting programme Allfit (De Lean et al., Am. J. Physiol. 235, E97-E102 (1978)). The IC50 value was converted to an affinity constant (Ki) by the equation of Cheng & Prusoff (Biochem. Pharmacol. 22, 3099-3108 (1973)). Data were expressed as mean of Ki.

[2] = target: T3, human 5-HT1A-serotoninergic receptor (Homo sapiens, UniProt P08908); assay: Radioligand binding ([3H]8-OH-DPAT) on membranes of HeLa cells expressing cloned 5-HT1A receptor; conditions: human cloned receptor, HeLa cell membranes, 1.2 nM [3H]8-OH-DPAT; read-out: Affinity (Ki) 5-HT1A
T3 construct: expressed in transfected cells; host or cells: HeLa cells (membranes)
T3 sequence (P08908 1-422): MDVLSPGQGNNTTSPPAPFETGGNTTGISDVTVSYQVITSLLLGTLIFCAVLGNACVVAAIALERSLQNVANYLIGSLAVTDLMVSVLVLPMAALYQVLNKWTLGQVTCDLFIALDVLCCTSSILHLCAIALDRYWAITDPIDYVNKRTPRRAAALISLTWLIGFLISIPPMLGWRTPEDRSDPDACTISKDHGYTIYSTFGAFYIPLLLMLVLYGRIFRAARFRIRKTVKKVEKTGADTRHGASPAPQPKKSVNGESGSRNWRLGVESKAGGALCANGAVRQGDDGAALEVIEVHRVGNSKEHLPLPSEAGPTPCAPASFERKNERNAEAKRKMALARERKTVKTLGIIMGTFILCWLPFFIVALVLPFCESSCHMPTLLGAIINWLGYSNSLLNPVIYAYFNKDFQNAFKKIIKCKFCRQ
Method: as §1

Ki [1]: 0.069 µM | Ki [2]: 0.00093 µM
Compound: COc1ccccc1N1CCN(CCN2C(=O)CC3(CCCC3)CC2=O)CC1 [BMY-7378, reference compound]
Functional affinity pKB, Guinea pig spleen α1B (Guinea pig spleen α1B): 6.55^a
